Test results: patent US8017585B2, “CXCR4 antagonist and use thereof” (priority 2002, dated 2011)
Bridge positions count the residues as written; N and C are the ends. Square brackets hold non-standard residues; d marks the D form. Peptide text beside a SMILES is read from it. * marks the point of attachment. X4 = CN(C)C(=N[C@@H](CCCNC(=N)N)C(=O)*)N(C)C; 2Nal = N[C@@H](Cc1ccc2ccccc2c1)C(=O)O; dCit = NC(=O)NCCC[C@@H](N)C(=O)O; Cit = NC(=O)NCCC[C@H](N)C(=O)O; Ahx = NCCCCCC(=O)O

Tests used:
[1] = test system: mouse collagen-induced arthritis; assay: Mouse collagen-induced arthritis; type: in vivo, DBA/1JN mouse; conditions: known drugs p.o. daily for 2 weeks: Indomethacin 1 mg/kg, methotrexate 3 mg/kg, FK-506 10 mg/kg
Protocol: FK-506 was purified by a known method (Kino T. et al., J. Antibiot., 1987 40(9): 1249-55). […] For 2 weeks after the additional immunization, body weights and hindlimb thickness were measured and arthritis scoring was made. Arthritis scores were scored at 0-3 points of each limb, and evaluated by the total of the same (12 points being the full points; 0, normal; 1, mild swelling or swelling of a single digit; 2, moderate swelling or swelling of plural digits; 3, severe swelling). Two weeks after the immunization, four limbs and sera were picked. After coat blocking bovine type II collagen (10 μg/mL PBS solution) on the immunoplate, 100 μL of 1000 times diluted mouse serum was added, and kept at room temperature for 2 hours. After cleansing, anti-mouse IgG2a antibody (1000 times dilution) was added. After cleansing, TMB was added, kept at room temperature for 30 minutes, H2SO4 of equal amount was added, and A450 nm was measured. Indomethacin (1 mg/kg), methotrexate (3 mg/kg) and FK-506 (10 mg/kg) were suspended to 0.5% methyl cellulose, and orally administered every day for 2 weeks from the day of the additional immunization at the dose of 0.1 mL/10 g body weight. 0.5% methyl cellulose solution of the equal dose was orally administered to the control group. 4Fbenzoyl-TN14003 was dissolved to PBS, and continuously administered using Alzet osmotic pumps (Alza, 0.5 μL/hr 2 weeks). The osmotic pumps were implanted intradermally to the backs of the mice under ether anesthesia on the day before the additional immunization. As the control, pumps injected with PBS were similarly implanted. Evaluation of each drug was made for the value obtained 2 weeks after the additional immunization. Data were expressed as mean value±standard margin of error (n=8-12). Comparison between 2 groups was made by Student's t-test, p≦0.05 was valued as significant. Multiple comparison was made by Dunnett test, p≦0.05 was valued as significant.

[2] = target: T1, CXCR4 receptor (Homo sapiens, UniProt P61073); assay: Inhibition of 125I-CXCL12 binding to CXCR4 receptor on Jurkat cells; conditions: Table 1, 125I-CXCL12, 1 hour at room temperature, compounds as acetate salt, read-out: IC50 (nM), inhibitory activity against CXCL12 binding to CXCR4 receptor
T1 construct: 50 μL of Jurkat human T-cell leukemia cells (6×10^6 cells/mL) suspended in buffer; endogenous in cells; host or cells: Jurkat human T-cell leukemia cells
T1 sequence (P61073 whole entry): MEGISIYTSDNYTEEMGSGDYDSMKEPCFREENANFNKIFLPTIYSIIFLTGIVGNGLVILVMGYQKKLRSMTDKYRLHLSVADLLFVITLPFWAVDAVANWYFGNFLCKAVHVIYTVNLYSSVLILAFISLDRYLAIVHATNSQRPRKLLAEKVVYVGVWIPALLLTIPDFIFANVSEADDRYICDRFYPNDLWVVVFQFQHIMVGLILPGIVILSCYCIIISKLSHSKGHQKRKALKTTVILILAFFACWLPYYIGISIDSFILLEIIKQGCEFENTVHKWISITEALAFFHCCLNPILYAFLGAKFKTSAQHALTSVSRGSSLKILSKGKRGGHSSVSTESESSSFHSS
Protocol: After reaction, suction was made toward the reaction solution by 96 well GF/C filter plate, and each well's radioactivity was measured by top count. As the radioactivity index of 100% when the test compound was not added, and 0% when 100 nM of non-radioisotope-labeled CXCL12 was added, the inhibitory activity of each test compound was measured.

[3] = test system: human breast cancer MDA-MB-231 cells; assay: Inhibition of CXCL12-induced breast cancer cell migration (Transwell); type: cell-based; conditions: 10 nM of the antagonist; 100 nM CXCL12; 15 hours
Protocol: Transwell filter (polycarbonate filter, 8 μm diameter, Costar Company) was treated at 37° C. for 6 hours in 10 μg/mL fibronectin solution and air-dried. 100 nM of CXCL12 (R&D System Company) and 600 μL/well of buffer-A (0.1% bovine serum albumin, DMEM (GibcoBRL) containing 12 mM HEPES) containing the test compound were added to the lower chamber of the Transwell. The test compound and human breast cancer MDA-MB-231 cells (purchased from American Tissue Culture Collection), and 100 μL/well of buffer A containing 2×10^6 cells/mL were added to the upper chamber. […] Cutting off the filter part, adding 0.1 M sodium citrate/50% ethanol solution, and eluting crystal violet absorption at 550 nm was measured. […]
After 15 hours' incubation at 37° C. in 5% CO2 incubator, the upper surface of the filter was wiped and the cell was removed, and then the cell on the lower surface of the filter was fixed and stained with 25% methanol solution containing 0.5% crystal violet (Wako Pure Chemical Ind.), washed by distilled water and air-dried. Cutting off the filter part, adding 0.1 M sodium citrate/50% ethanol solution, and eluting crystal violet absorption at 550 nm was measured. […]

SMILES	IC50 [2] [nM]	arthritis score [1]	hindlimb swelling [1]	CXCL12-induced migration of MDA-MB-231 cells [3]
COc1ccc2c(c1)c(CC(=O)O)c(C)n2C(=O)c1ccc(Cl)cc1 [Indomethacin, reference compound]		significant or evident inhibitory activity	significantly inhibited	
N=C(N)NCCC[C@H](NC(=O)[C@@H]1CSSC[C@H](NC(=O)[C@H](Cc2ccc3ccccc3c2)NC(=O)[C@H](CCCNC(=N)N)NC(=O)[C@@H](N)CCCNC(=N)N)C(=O)N[C@@H](Cc2ccc(O)cc2)C(=O)N[C@@H](CCCNC(=N)N)C(=O)N[C@@H](CCCCN)C(=O)N[C@H](CCC(=O)O)C(=O)N2CCC[C@H]2C(=O)N[C@@H](Cc2ccc(O)cc2)C(=O)N[C@@H](CCCNC(=N)N)C(=O)N[C@@H](CCCNC(N)=O)C(=O)N1)C(=O)O [TE14005, H-Arg-Arg-Nal-Cys-Tyr-Arg-Lys-DGlu-Pro-Tyr-Arg-Cit-Cys-Arg-OH] (H-RR[2Nal]CYRK[dE]PYR[Cit]CR-OH; disulfide 4-13)	2.2			inhibited
CN(Cc1cnc2nc(N)nc(N)c2n1)c1ccc(C(=O)N[C@@H](CCC(=O)O)C(=O)O)cc1 [methotrexate, reference compound]		significant or evident inhibitory activity	significantly inhibited	

Continued, in another order:

IC50 [2] [nM]	SMILES	arthritis score [1]	hindlimb swelling [1]	CXCL12-induced migration of MDA-MB-231 cells [3]
79	N=C(N)NCCC[C@H](NC(=O)[C@@H]1CSSC[C@H](NC(=O)[C@H](Cc2ccc3ccccc3c2)NC(=O)[C@@H](N)CCCNC(=N)N)C(=O)N[C@@H](Cc2ccc(O)cc2)C(=O)N[C@@H](CCCNC(N)=O)C(=O)N[C@@H](CCCCN)C(=O)N[C@H](CCC(=O)O)C(=O)N2CCC[C@H]2C(=O)N[C@@H](Cc2ccc(O)cc2)C(=O)N[C@@H](CCCNC(=N)N)C(=O)N[C@@H](CCCNC(N)=O)C(=O)N1)C(N)=O [TF17, H-Arg-Nal-Cys-Tyr-Cit-Lys-DGlu-Pro-Tyr-Arg-Cit-Cys-Arg-NH2] (H-R[2Nal]CY[Cit]K[dE]PYR[Cit]CR-NH2; disulfide 3-12)			
8	CN(C)C(=N[C@@H](CCCNC(=N)N)C(=O)N[C@@H](CCCNC(=N)N)C(=O)N[C@@H](Cc1ccc2ccccc2c1)C(=O)N[C@H]1CSSC[C@@H](C(=O)N[C@@H](CCCNC(=N)N)C(N)=O)NC(=O)[C@H](CCCNC(N)=O)NC(=O)[C@H](CCCNC(=N)N)NC(=O)[C@H](Cc2ccc(O)cc2)NC(=O)[C@@H]2CCCN2C(=O)[C@@H](CCCNC(N)=O)NC(=O)[C@H](CCCCN)NC(=O)[C@H](CCCNC(N)=O)NC(=O)[C@H](Cc2ccc(O)cc2)NC1=O)N(C)C [TF18, TMguanyl-Arg-Arg-Nal-Cys-Tyr-Cit-Lys-DCit-Pro-Tyr-Arg-Cit-Cys-Arg-NH2] (X4-R[2Nal]CY[Cit]K[dCit]PYR[Cit]CR-NH2; disulfide 3-12)			
4.5	N=C(N)NCCC[C@H](NC(=O)[C@@H]1CSSC[C@H](NC(=O)[C@H](Cc2ccc3ccccc3c2)NC(=O)[C@H](CCCNC(=N)N)NC(=O)[C@H](CCCNC(=N)N)NC(=O)CCCCCN)C(=O)N[C@@H](Cc2ccc(O)cc2)C(=O)N[C@@H](CCCNC(N)=O)C(=O)N[C@@H](CCCCN)C(=O)N[C@H](CCCNC(N)=O)C(=O)N2CCC[C@H]2C(=O)N[C@@H](Cc2ccc(O)cc2)C(=O)N[C@@H](CCCNC(=N)N)C(=O)N[C@@H](CCCNC(N)=O)C(=O)N1)C(N)=O [TF19, ACA-Arg-Arg-Nal-Cys-Tyr-Cit-Lys-DCit-Pro-Tyr-Arg-Cit-Cys-Arg-NH2] (H-[Ahx]RR[2Nal]CY[Cit]K[dCit]PYR[Cit]CR-NH2; disulfide 5-14)			
